The values below come from article PMC9007901 (European journal of medicinal chemistry, 2022).

In data set [1] the target is T1, hHDAC8 (Homo sapiens, UniProt Q9BY41).
T1 sequence (Q9BY41 1-377): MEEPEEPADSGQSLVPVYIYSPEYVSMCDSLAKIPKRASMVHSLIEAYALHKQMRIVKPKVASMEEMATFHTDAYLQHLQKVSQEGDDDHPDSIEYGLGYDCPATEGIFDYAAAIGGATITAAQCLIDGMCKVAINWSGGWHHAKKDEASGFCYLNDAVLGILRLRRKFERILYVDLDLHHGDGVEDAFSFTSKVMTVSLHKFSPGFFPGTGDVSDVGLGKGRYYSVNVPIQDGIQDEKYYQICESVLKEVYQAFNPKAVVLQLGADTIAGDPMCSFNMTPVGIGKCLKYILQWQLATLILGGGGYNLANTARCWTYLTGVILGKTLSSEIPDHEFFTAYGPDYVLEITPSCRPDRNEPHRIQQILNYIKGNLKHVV
The experiment in a line: HDAC8 activity assay. The format is biochemical.

For data set [2], the target named is T2, drHDAC10 (Danio rerio, UniProt F1QCV2).
T2 sequence (F1QCV2 1-675): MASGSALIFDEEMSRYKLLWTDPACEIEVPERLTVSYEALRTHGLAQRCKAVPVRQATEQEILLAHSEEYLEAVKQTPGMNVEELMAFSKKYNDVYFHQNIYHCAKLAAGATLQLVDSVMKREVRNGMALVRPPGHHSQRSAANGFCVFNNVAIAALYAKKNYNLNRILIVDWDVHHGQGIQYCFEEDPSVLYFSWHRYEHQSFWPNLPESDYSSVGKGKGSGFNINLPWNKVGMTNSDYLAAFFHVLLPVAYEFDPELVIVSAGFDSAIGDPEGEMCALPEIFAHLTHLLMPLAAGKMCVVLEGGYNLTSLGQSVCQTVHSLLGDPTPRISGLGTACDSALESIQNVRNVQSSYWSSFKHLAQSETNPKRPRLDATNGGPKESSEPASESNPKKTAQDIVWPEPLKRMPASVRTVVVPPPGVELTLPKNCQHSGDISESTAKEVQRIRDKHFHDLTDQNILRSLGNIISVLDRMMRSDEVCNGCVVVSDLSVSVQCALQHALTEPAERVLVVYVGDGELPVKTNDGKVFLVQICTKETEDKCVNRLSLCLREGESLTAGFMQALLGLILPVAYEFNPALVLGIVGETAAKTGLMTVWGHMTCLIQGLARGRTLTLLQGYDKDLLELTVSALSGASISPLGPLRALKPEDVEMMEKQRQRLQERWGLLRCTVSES
The experiment in a line: drHDAC10 enzymatic in vitro assay. Type of data set: biochemical.

The subject of data set [3] is acetylated histone H3 in MV4–11 cells. The experiment in a line: Immunoblot for acetylated histone H3. Type of data set: cell-based. The settings on record: 24 h. For orientation: A western blot detects proteins with antibodies after separation by electrophoresis.
Data set [4] addresses hHDAC1 (Homo sapiens, UniProt Q13547). In words: recombinant HDAC1 homogenous fluorescence assay.
The target of data set [5] is T3, hHDAC6 (Homo sapiens, UniProt Q9UBN7).
T3 sequence (Q9UBN7 1-1215): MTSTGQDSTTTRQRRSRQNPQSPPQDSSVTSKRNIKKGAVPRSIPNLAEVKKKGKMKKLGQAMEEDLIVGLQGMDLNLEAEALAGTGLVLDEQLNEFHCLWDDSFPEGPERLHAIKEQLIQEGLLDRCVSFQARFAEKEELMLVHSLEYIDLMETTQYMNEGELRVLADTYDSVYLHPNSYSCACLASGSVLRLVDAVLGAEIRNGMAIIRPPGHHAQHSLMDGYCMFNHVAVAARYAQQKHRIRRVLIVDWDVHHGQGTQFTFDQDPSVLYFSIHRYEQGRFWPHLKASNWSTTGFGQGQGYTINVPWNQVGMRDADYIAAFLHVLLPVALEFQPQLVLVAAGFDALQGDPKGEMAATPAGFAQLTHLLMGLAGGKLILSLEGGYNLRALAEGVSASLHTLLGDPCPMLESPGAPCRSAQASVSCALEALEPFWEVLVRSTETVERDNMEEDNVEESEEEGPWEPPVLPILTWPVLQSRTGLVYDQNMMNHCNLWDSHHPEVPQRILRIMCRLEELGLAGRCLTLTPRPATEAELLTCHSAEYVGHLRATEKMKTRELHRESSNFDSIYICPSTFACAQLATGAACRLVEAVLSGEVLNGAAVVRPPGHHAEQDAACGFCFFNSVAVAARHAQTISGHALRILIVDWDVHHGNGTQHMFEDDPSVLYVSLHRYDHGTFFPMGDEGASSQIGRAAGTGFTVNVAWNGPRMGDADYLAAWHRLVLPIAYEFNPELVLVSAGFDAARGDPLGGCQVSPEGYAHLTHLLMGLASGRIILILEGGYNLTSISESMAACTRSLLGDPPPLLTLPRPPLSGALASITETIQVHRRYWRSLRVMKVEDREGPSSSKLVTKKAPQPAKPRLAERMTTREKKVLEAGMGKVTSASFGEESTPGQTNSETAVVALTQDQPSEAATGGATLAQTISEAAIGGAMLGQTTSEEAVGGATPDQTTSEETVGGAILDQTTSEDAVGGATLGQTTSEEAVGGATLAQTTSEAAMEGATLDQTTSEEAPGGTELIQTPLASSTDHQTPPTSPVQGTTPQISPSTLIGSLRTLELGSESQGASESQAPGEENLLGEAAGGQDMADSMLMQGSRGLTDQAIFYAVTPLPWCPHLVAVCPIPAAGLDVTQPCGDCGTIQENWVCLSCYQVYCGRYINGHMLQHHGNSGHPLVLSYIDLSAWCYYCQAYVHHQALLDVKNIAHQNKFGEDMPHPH
In words: recombinant HDAC6 homogenous fluorescence assay.

The subject of data set [6] is acetylated tubulin-α in MV4–11 cells. In words: Immunoblot for acetylated tubulin-α. The format is cell-based. The following applies: 15 μM, 24 h, did not reach significance.
For data set [7], the system named is MV4–11 cells. The experiment in a line: Cyto-ID detection of modulation of autophagy. The format is cell-based. The following applies: 2–15 μM, 24 h, with 10 μM chloroquine.
Data set [8] relates to HDAC10 and GAPDH levels in MV4–11 cells. In words: Immunoblot for HDAC10 and GAPDH levels. Type of data set: cell-based. The following applies: 24 h.
Data set [9] relates to MV4–11 cells. The experiment in a line: Annexin-V-FITC / PI flow cytometry. Type of data set: cell-based. The following applies: 2–15 μM, 24 h.
For data set [10], the system named is SK-N-BE(2)-C neuroblastoma cells. In words: LysoTracker assay. The format is cell-based, Human. The settings on record: SK-N-BE(2)-C cells, 24 h.

Chain of hHDAC1 (Q13547 whole entry): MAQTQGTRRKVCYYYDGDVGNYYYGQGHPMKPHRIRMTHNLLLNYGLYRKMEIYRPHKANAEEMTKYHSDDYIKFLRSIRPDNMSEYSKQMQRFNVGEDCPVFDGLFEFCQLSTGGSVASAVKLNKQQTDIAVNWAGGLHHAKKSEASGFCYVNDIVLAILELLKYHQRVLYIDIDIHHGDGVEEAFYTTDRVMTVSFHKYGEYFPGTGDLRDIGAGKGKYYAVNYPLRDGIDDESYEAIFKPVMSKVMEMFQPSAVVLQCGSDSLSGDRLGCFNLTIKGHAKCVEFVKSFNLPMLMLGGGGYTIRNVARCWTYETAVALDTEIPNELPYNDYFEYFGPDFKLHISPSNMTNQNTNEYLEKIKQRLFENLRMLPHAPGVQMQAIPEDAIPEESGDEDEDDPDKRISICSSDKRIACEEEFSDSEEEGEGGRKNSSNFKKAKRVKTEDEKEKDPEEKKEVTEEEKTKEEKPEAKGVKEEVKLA

On to `O=C(NO)c1ccc(CNCc2ccccc2)cc1` [4a, 4-[(benzylamino)methyl]-benzhydroxamic acid], for which the “selectivity index (SI), hHDAC8 over drHDAC10” value (shortened to “selectivity index (SI), hHDAC8”) in data set [1] is listed as 94.
In the case of `O=C(NO)c1ccc(CN2CCCCC2)cc1` [6a, 4-(piperidin-1-ylmethyl)benzhydroxamic acid], in data set [2], the “drHDAC10 inhibition (in words)” value was “only weak HDAC10 inhibition”.
Take `Nc1ccccc1NC(=O)c1ccc(CNC(=O)OCc2cccnc2)cc1` [Entinostat (MS-275), entinostat, reference compound]: the “accumulation of acetylated histone H3” value in data set [3] (5 μM, positive control) was “induced a highly significant accumulation of acetylated histone H3”.
Take `O=C(/C=C/C1CCN(Cc2csc3ccccc23)CC1)NO` [13a, (E)-3-{1-[benzothiophen-3-ylmethyl]piperidin-4-yl} acrylhydroxamic acid]: the “drHDAC10 inhibition (in words)” value in data set [2] is given as “Potent drHDAC10 inhibition”.
As for `O=C(NO)c1ccc(CNCc2cccs2)cc1` [4b, 4-{[(thiophen-2-ylmethyl)amino]methyl}benzhydroxamic acid], the “selectivity index (SI), hHDAC1 over drHDAC10” value (“selectivity index (SI), hHDAC1” below) in data set [4] stood at 85. Moreover, in data set [1], the “selectivity index (SI), hHDAC8” value is listed as 30.
Regarding `O=C(/C=C/C1CCN(Cc2cccc(Cl)c2)CC1)NO` [10d, (E)-3-[1-(3-chlorobenzyl)piperidin-4-yl]acrylhydroxamic acid], in [1], the 50% inhibitory concentration (IC50) was 2500 ± 260 nM.
In the case of `O=C(/C=C/C1CCN(CCc2ccccc2)CC1)NO` [10a, (E)-3-(1-phenethylpiperidin-4-yl)acrylhydroxamic acid], the “selectivity index (SI), hHDAC1” value in [4] is 1454. Moreover, in data set [5], the “selectivity index (SI), hHDAC6 over drHDAC10” value came out at 395. Moreover, in data set [1], it took 250 ± 50 nM to reach half-maximal inhibition (IC50) and the “selectivity index (SI), hHDAC8” value was found to be 23.
In the case of `O=C(/C=C/C1CCN(Cc2cccc3ccccc23)CC1)NO` [10c, (E)-3-[1-(naphthalen-1-ylmethyl)piperidin-4-yl]acrylhydroxamic acid], in data set [6], the “tubulin acetylation compared to non-treated cells” value is 36–80 fold. In data set [7], the “accumulation of cyto-ID positive vesicles” value was “significantly induced the accumulation of cyto-ID positive vesicles”. For the same compound, in data set [2], the “drHDAC10 inhibition (in words)” value is given as “Potent drHDAC10 inhibition”. For the same compound, the concentration for half-maximal inhibition (IC50) in data set [1] is 470 ± 70 nM. Also, in data set [8], the GAPDH levels entry is recorded as “no change of GAPDH levels” and the HDAC10 protein levels result is “slightly increased levels of HDAC10”. For the same compound, the “apoptosis (annexin-V-FITC / PI)” value in [9] is “did not trigger apoptosis”. In data set [3] (2–15 μM), the “accumulation of acetylated histone H3” value is recorded as “did not induce a significant accumulation of acetylated histone H3”. Also, the “expansion and acidification of the lysosomal compartment (LysoTracker DND-99)” value in [10] is “induced the expansion and acidification of the lysosomal compartment”.
On to `CN1CCN(Cc2ccc(C(=O)NO)cc2)CC1` [6b, 4-[(N-methylpiperazin-1-yl)methyl]benzhydroxamic acid], for which the “selectivity index (SI), hHDAC6 over drHDAC10” value in [5] came to 9. The compound further registered a half-inhibitory concentration (IC50) in [1] of 2400 ± 210 nM.
`Cn1cc(CN2CCC(/C=C/C(=O)NO)CC2)c2ccccc21` [13b, (E)-3-{1-[(1-methylindol-3-yl)methyl]piperidin-4-yl} acrylhydroxamic acid]: the “tubulin acetylation compared to non-treated cells” value in data set [6] is 36–80 fold. In addition, the “accumulation of cyto-ID positive vesicles” value in [7] was “significantly induced the accumulation of cyto-ID positive vesicles”. Further, the “drHDAC10 inhibition (in words)” value in [2] is on record as “Potent drHDAC10 inhibition”. In data set [8], the GAPDH levels result is on record as “no change of GAPDH levels” and the HDAC10 protein levels result is on record as “slightly increased levels of HDAC10”. In data set [9], the “apoptosis (annexin-V-FITC / PI)” value was “did not trigger apoptosis”. Also, the “accumulation of acetylated histone H3” value in data set [3] (2–15 μM) is listed as “did not induce a significant accumulation of acetylated histone H3”. The “expansion and acidification of the lysosomal compartment (LysoTracker DND-99)” value in data set [10] was “induced the expansion and acidification of the lysosomal compartment”.
For the compound `O=C(/C=C/C1CCN(CCc2c[nH]c3ccccc23)CC1)NO` [10b, (E)-3-{1-[2-(1H-indol-3-yl)ethyl]piperidin-4-yl}acrylhydroxamic acid], the “drHDAC10 inhibition (in words)” value in data set [2] is recorded as “Potent drHDAC10 inhibition”. Also, in data set [1], the IC50 was 420 ± 55 nM.
For `O=C(NO)c1ccc(CNCc2ccsc2)cc1` [4c, 4-{[(thiophen-3-ylmethyl)amino]methyl}benzhydroxamic acid], the “selectivity index (SI), hHDAC1” value in data set [4] came out at 417.

What is called IC50 is the point on the concentration scale where inhibition reaches its midpoint. A high value points to lower potency.
